“And” between values parts separate entries of the source, which are not always exact repeats. Equal entries are not always repeated. Peptide text beside a SMILES is read from it.

One experiment deals with HLA-B4601 (Homo sapiens, UniProt P01889, A329T/A93R/C349S/D201E/E100V/E187L/E204Q/E69M/E70A/I90K/K202T/N87E/R155S/R180W/S121R/S35A/S48A/V306I/V36M/Y140S). Briefly: Competitive peptide binding assay, CIR-B4601. Particulars: for IC50: HMy2.CIR-B4601 cells, reference Cy5-[…], class from inhibition at 5 and 15 μM, flow cytometry MFI, read-out: Binding affinity with HLA-B4601; for inhibition at 5 µM: read-out: Inhibition % of Cy5-reference peptide binding, CIR-B4601, 5μM peptide; for inhibition at 15 µM: read-out: Inhibition % of Cy5-reference peptide binding, CIR-B4601, 15μM peptide. The protocol: (§1) Then, competitive peptide binding assays were performed.
For orientation: A flow cytometer gives signals particle by particle.

A further experiment deals with HLA-B4001 (Homo sapiens, UniProt P01889, A65T/A93T/A95T/D138N/D98Y/E176V/E69K/N87E/Q56L/Q94N/R180L/S121R/S35A/S48T/T167S/V36M/W171L/Y33H/Y91S). Briefly: Competitive peptide binding assay, CIR-B4001. The settings on record: HMy2.CIR-B4001 cells, reference Cy5-[…], class from inhibition at 5 and 15 μM, flow cytometry MFI; read-out: Binding affinity with HLA-B4001. The protocol:
as §1

A further experiment addresses HLA-B5801 (Homo sapiens, UniProt P01889, A329T/C349S/D201E/D98Y/E176V/E187L/E204Q/E69T/G107R/I218V/I90N/K202T/L105A/L119I/N104I/N87E/Q89R/Q94S/R106L/R155S/R180L/R86G/S101N/S121R/S35A/S48A/T118I/V127L/V306I/V36M/Y140S/Y91M). Kind of experiment: Competitive peptide binding assay, CIR-B5801. Particulars: HMy2.CIR-B5801 cells, reference Cy5-[…], class from inhibition at 5 and 15 μM, flow cytometry MFI; read-out: Binding affinity with HLA-B5801. The protocol:
as §1

The target of the next experiment is HLA-B1302 (Homo sapiens, UniProt P01889, A65T/A93T/A95T/D138N/D201E/D98Y/E176V/E204Q/E69M/E70A/G107R/K202T/L105A/L119W/N104T/N87E/Q94N/R106L/R155S/R169L/R180L/S101N/S121T/S35A/S48T/V127L/V36M/Y140L/Y91S). Briefly: Competitive peptide binding assay, CIR-B1302. Particulars: HMy2.CIR-B1302 cells, reference Cy5-MMWYWGPSL, class from inhibition at 5 and 15 μM, flow cytometry MFI; read-out: Binding affinity with HLA-B1302. The procedure:
as §1

In another experiment the target is HLA-B1501 (Homo sapiens, UniProt P01889, A329T/A93T/A95T/C349S/D201E/D98Y/E187L/E204Q/E69M/E70A/K202T/N87E/Q94N/R155S/R180W/S121R/S35A/S48A/V306I/V36M/Y140S/Y91S). Kind of experiment: Competitive peptide binding assay, CIR-B1501. The settings on record: HMy2.CIR-B1501 cells, reference Cy5-[…], class from inhibition at 5 and 15 μM, flow cytometry MFI; read-out: Binding affinity with HLA-B1501. The procedure: as §1

The target of a further experiment is HLA-B3501 (Homo sapiens, UniProt P01889, A329T/A93T/A95T/C349S/D201E/D98Y/E176V/E187L/E204Q/E69T/I218V/K202T/L119I/Q94N/R155S/R180L/S121R/S35A/S48A/T118I/V127L/V306I/V36M/Y140S/Y91F). Briefly: Competitive peptide binding assay, CIR-B3501. Particulars: HMy2.CIR-B3501 cells, reference Cy5-[…], class from inhibition at 5 and 15 μM, flow cytometry MFI; read-out: Binding affinity with HLA-B3501. The protocol: as §1

The target of a further experiment is HLA-B4403 (Homo sapiens, UniProt P01889, A223V/A65T/A93T/A95T/D201E/D98Y/E176V/E187L/E204Q/E69K/G107R/H137Y/K202T/L105A/L119I/N104T/N87E/Q56L/Q94N/R106L/R155S/R180L/S101N/S121R/S35A/S48T/T118I/V36M/W191S/Y140D/Y91S). Kind of experiment: Competitive peptide binding assay, CIR-B4403. Particulars: HMy2.CIR-B4403 cells, reference Cy5-CYMEAVAL, class from inhibition at 5 and 15 μM, flow cytometry MFI; read-out: Binding affinity with HLA-B4403. The procedure: as §1

Another experiment has as its target HLA-B1301 (Homo sapiens, UniProt P01889, A65T/A93T/A95T/D138N/D201E/D98Y/E176V/E204Q/E69M/E70A/G107R/K202T/L105A/L119I/N104T/N87E/Q94N/R106L/R155S/R169L/R180L/S101N/S121R/S35A/S48T/T118I/V127L/V36M/Y140L/Y91S). Briefly: Competitive peptide binding assay, CIR-B1301. Particulars: HMy2.CIR-B1301 cells, reference Cy5-[…], class from inhibition at 5 and 15 μM, flow cytometry MFI; read-out: Binding affinity with HLA-B1301. The procedure: as §1

In a further experiment the target is HLA-B1502 (Homo sapiens, UniProt P01889, A329T/A93T/A95T/C349S/D201E/D98Y/E187L/E204Q/E69M/E70A/H137Y/K202T/L119I/Q94N/R155S/R180L/S121R/S35A/S48A/T118I/V306I/V36M/Y140S/Y91S). Kind of experiment: Competitive peptide binding assay, CIR-B1502. Particulars: HMy2.CIR-B1502 cells, reference Cy5-[…], class from inhibition at 5 and 15 μM, flow cytometry MFI; read-out: Binding affinity with HLA-B1502. The protocol:
as §1

A further experiment addresses T1, HLA-B0702 (Homo sapiens, UniProt P01889).
T1 construct: expressed in transfected cells; host or cells: HMy2.CIR
Kind of experiment: Competitive peptide binding assay, CIR-B0702. The settings on record: HMy2.CIR-B0702 cells, reference Cy5-[…], class from inhibition at 5 and 15 μM, flow cytometry MFI. The procedure:
as §1

The next experiment deals with HLA-B5101 (Homo sapiens, UniProt P01889, A329T/A93T/A95T/C349S/D138N/D201E/D98Y/E187L/E204Q/E69T/G107R/I218V/K202T/L105A/L119W/N104I/Q94N/R106L/R155S/R180L/S101N/S121T/S35A/S48A/V306I/V36M/Y195H/Y91F). Kind of experiment: Competitive peptide binding assay, CIR-B5101. Particulars: HMy2.CIR-B5101 cells, reference Cy5-[…], class from inhibition at 5 and 15 μM, flow cytometry MFI; read-out: Binding affinity with HLA-B5101. The procedure: as §1

Regarding `CC[C@H](C)[C@H](NC(=O)[C@H](CC(C)C)NC(=O)[C@H](CS)NC(=O)CNC(=O)[C@H](C)NC(=O)[C@H](CCCNC(=N)N)NC(=O)[C@@H](NC(=O)[C@H](CCC(N)=O)NC(=O)[C@@H](N)Cc1ccccc1)[C@@H](C)O)C(=O)O` [Epitope Y89] (H-FQTRAGCLI-OH; N-terminus and C-terminus assumed), the IC50 was more than 15 µM on HLA-B4601; 5 to 15 µM on HLA-B4001; more than 15 µM at HLA-B5801; < 5 µM and > 15 µM on HLA-B1302; more than 15 µM on HLA-B1501; more than 15 µM at HLA-B3501. Further, the IC50 on HLA-B4403 is more than 15 µM.

With `CC[C@H](C)[C@H](NC(=O)[C@H](CCCNC(=N)N)NC(=O)[C@H](CC(C)C)NC(=O)[C@H](CCSC)NC(=O)[C@H](CC(N)=O)NC(=O)[C@@H]1CCCN1C(=O)[C@H](CCSC)NC(=O)[C@H](C)NC(=O)[C@@H](N)CCCNC(=N)N)C(=O)O` [Epitope Y77] (H-RAMPNMLRI-OH; N-terminus and C-terminus assumed), the IC50 is 5 to 15 µM on HLA-B4601; 5 to 15 µM at HLA-B5801; more than 15 µM on HLA-B1301; less than 5 µM at HLA-B1302; more than 15 µM at HLA-B3501; more than 15 µM on HLA-B4403.

Consider `CC(C)[C@H](NC(=O)[C@@H](NC(=O)[C@@H](N)Cc1ccccc1)C(C)C)C(=O)N[C@@H](CO)C(=O)N[C@H](C(=O)NCC(=O)N[C@@H](Cc1ccc(O)cc1)C(=O)N[C@@H](Cc1c[nH]cn1)C(=O)N[C@@H](Cc1ccccc1)C(=O)O)[C@@H](C)O` [Epitope Y167] (H-FVVSTGYHF-OH; N-terminus and C-terminus assumed), for which the IC50 at HLA-B4601 was 5 to 15 µM; at HLA-B5801, more than 15 µM; at HLA-B1502 it was 5 to 15 µM; on HLA-B1301 it was more than 15 µM; on HLA-B1501, more than 15 µM; at HLA-B3501, 5 to 15 µM. Further, the IC50 on HLA-B4403 and on HLA-B0702 was more than 15 µM each time.

For `CC(C)[C@H](NC(=O)[C@H](CC(N)=O)NC(=O)[C@H](Cc1ccc(O)cc1)NC(=O)[C@H](C)NC(=O)[C@@H](N)CCCCN)C(=O)N[C@H](C(=O)N[C@@H](CCC(N)=O)C(=O)N[C@@H](C)C(=O)N[C@@H](Cc1ccccc1)C(=O)O)[C@@H](C)O` [Epitope Y62] (H-KAYNVTQAF-OH), the IC50 is 5 to 15 µM on HLA-B4601; more than 15 µM at HLA-B4001; 5 to 15 µM at HLA-B5801; more than 15 µM at HLA-B1302; 5 to 15 µM at HLA-B1501; less than 5 µM on HLA-B3501. Also, the results for the IC50 on HLA-B4403 and at HLA-B0702 were 5 to 15 µM and more than 15 µM, respectively.

On to `CC[C@H](C)[C@H](NC(=O)[C@H](Cc1ccc(O)cc1)NC(=O)[C@H](CCC(N)=O)NC(=O)[C@H](CCC(=O)O)NC(=O)[C@@H](N)Cc1ccc(O)cc1)C(=O)N[C@@H](CCCCN)C(=O)N[C@@H](Cc1c[nH]c2ccccc12)C(=O)N1CCC[C@H]1C(=O)N[C@@H](Cc1c[nH]c2ccccc12)C(=O)O` [Epitope Y230] (H-YEQYIKWPW-OH; N-terminus and C-terminus assumed), for which the IC50 was more than 15 µM on HLA-B4601; more than 15 µM on HLA-B4001; 5 to 15 µM at HLA-B5801; more than 15 µM on HLA-B1502; more than 15 µM on HLA-B1501; more than 15 µM on HLA-B3501. Besides, the IC50 on HLA-B4403 was less than 5 µM.

Turning to `CC[C@H](C)[C@H](NC(=O)[C@H](C)NC(=O)[C@H](C)NC(=O)[C@H](CC(N)=O)NC(=O)[C@H](CC(N)=O)NC(=O)[C@H](C)NC(=O)[C@@H]1CCCN1C(=O)[C@@H](N)CC(N)=O)C(=O)N[C@H](C(=O)O)C(C)C` [Epitope Y18] (H-NPANNAAIV-OH; N-terminus and C-terminus assumed), the IC50 at HLA-B4601 is more than 15 µM; at HLA-B4001, more than 15 µM; at HLA-B1501, 5 to 15 µM; at HLA-B4403 it was more than 15 µM. Moreover, on HLA-B4601, the inhibition at 5 µM is 12.5%. Also, the inhibition at 15 µM on HLA-B4601 was 42.5%.

Take `CC[C@H](C)[C@H](N)C(=O)N[C@@H](C)C(=O)N[C@@H](CCSC)C(=O)N[C@@H](C)C(=O)N[C@@H](CS)C(=O)N[C@@H](CC(C)C)C(=O)N[C@H](C(=O)NCC(=O)N[C@@H](CC(C)C)C(=O)O)C(C)C` [Epitope Y253] (H-IAMACLVGL-OH; N-terminus and C-terminus assumed): the IC50 on HLA-B4601 is less than 5 µM; on HLA-B5801, more than 15 µM; on HLA-B1502 it was more than 15 µM; on HLA-B1301 it was 5 to 15 µM; at HLA-B1302, 5 to 15 µM; at HLA-B1501, more than 15 µM. In addition, the IC50 at HLA-B3501 is more than 15 µM; at HLA-B4403 it was 5 to 15 µM.

Turning to `CC(C)C[C@H](NC(=O)[C@H](CCC(N)=O)NC(=O)[C@@H](NC(=O)[C@H](CS)NC(=O)[C@H](Cc1ccccc1)NC(=O)[C@H](CO)NC(=O)CNC(=O)[C@H](Cc1ccc(O)cc1)NC(=O)[C@H](CCC(N)=O)NC(=O)[C@@H](N)CC(C)C)[C@@H](C)O)C(=O)O` [Epitope Y88] (H-LQYGSFCTQL-OH; N-terminus and C-terminus assumed), the IC50 is more than 15 µM on HLA-B5801, more than 15 µM on HLA-B5101, more than 15 µM at HLA-B1501 and 5 to 15 µM at HLA-B3501.

As for `CC(C)C[C@H](NC(=O)[C@@H](NC(=O)[C@@H](NC(=O)CNC(=O)[C@H](CCC(N)=O)NC(=O)[C@@H]1CCCN1C(=O)[C@H](CC(C)C)NC(=O)[C@H](CCC(N)=O)NC(=O)[C@@H](N)CC(C)C)[C@@H](C)O)[C@@H](C)O)C(=O)O` [Epitope Y61] (H-LQLPQGTTL-OH; N-terminus and C-terminus assumed), the IC50 was more than 15 µM on HLA-B4601, 5 to 15 µM at HLA-B5801, 5 to 15 µM at HLA-B5101 and less than 5 µM at HLA-B3501. Further, the inhibition at 5 µM at HLA-B4601 is 20%. In addition, the inhibition at 15 µM at HLA-B4601 came to 33.6%.

The term inhibition denotes the drop in the measured response relative to a control, in per cent.

Values taken from PMC12133982, “Predominant T-cell epitopes of SARS-CoV-2 restricted by multiple prevalent HLA-B and HLA-C allotypes in Northeast Asia” (Frontiers in Immunology, 2025).
